# From patent US20150315130A1, “New positive allosteric modulators of nicotinic acetylcholine receptor” (H. LUNDBECK A/S, priority 2012, published 2015)
# Target: T1, human α7 receptor (Homo sapiens, UniProt P36544)
# T1 construct: host or cells: rat GH4C1 cell line
# Test: α7 NNR flux assay (FDSS calcium flux, Calcium-4 dye, PAM mode with acetylcholine)
# Format: cell-based
# Conditions: human α7 receptor stably expressed in rat GH4C1 cells; enhancement of response to 20 μM acetylcholine; % modulation relative to PNU-120596 set to 100%
# Method: The nicotinic acetylcholine receptor α7 is a calcium-permeable ion channel, whose activity can be measured by over expression in mammalian cells or oocytes. These two individual assays are described in Example 2 and 3, respectively.
# In this version of the assay, the human α7 receptor is stably expressed in the rat GH4C1 cell line. The assay was used to identify positive allosteric modulators (PAMs) of the α7 receptor. Activation of the channel was measured by loading cells with the calcium-sensitive fluorescent dye Calcium-4 (Assay kit from Molecular Devices), and then measuring real-time changes in fluorescence upon treatment with test compounds.
# The cell line ChanClone GH4C1-nAChRalphα7 from Genionics was seeded from frozen stock in 384-well plates in culture media 2-3 days before experiment to form an approximately 80% confluent layer on the day of experiment.
# The cell culture was split into “22.5 cm×22.5 cm”-plates with approximately 100×10^3 cells/cm^2. After four days incubation in a humidified incubator at 37° C. and 5% CO2, it had grown to an 80-90% confluent layer, and the cells were harvested.
# Two or three days before the experiment the cells were seeded in 384 well plates from Greiner bio-one (781946, CELLCOAT, Poly-D-Lysine, black, μClear).
# The media was poured off and the plate washed with PBS and left to drain. 5 mL Trypsin was added, cells were washed and incubated (at room temperature) for about 10 seconds. Trypsin was poured of quickly and the cells were incubated for 2 minutes at 37° C. (if the cells were not already detached). Cells were resuspended in 10 mL culture media and transferred to 50 mL tubes.
# The cell suspension was counted (NucleoCounter, total cell count) from the first plates to estimate the total cell number of the whole batch.
# The cells were seeded in 384 well plates with 30 μL/well (30000 cells/well) while stirring the cell suspension or otherwise preventing the cells from precipitating.
# The plates were incubated at room temperature for 30-45 minutes.
# The plates were placed in incubator for two days (37° C. and 5% CO2).
# The loading buffer was 5% v/v Calcium-4 Kit and 2.5 mM Probenecid in assay buffer.
# Culture media were removed from the cell plates and 20 μL loading buffer was added in each well. The cell plates were placed in trays and incubated 90 minutes in the incubator (37° C.). Thereafter the plates were incubated 30 minutes at room temperature, still protected from light.
# Now the cell plates were ready to run in the Functional Drug Screening System (FDSS).
# The assay buffer was HBSS with 20 mM HEPES, pH 7.4 and 3 mM CaCl2.
# 200 nL 10 mM compound solution in DMSO was diluted in 50 μL assay buffer. The final test concentrations in the cell plates were 20-10-5-2.5-1.25-0.625-0.312-0.156-0.078-0.039 μM. Assay buffer and 3 μM PNU-120596 were used for control.
# The agonist acetylcholine was added to a final concentration of 20 μM (˜E0100). In the FDSS7000 the Ex480-Em540 was measured with 1 second intervals. The baseline was made of 5 frames before addition of test compounds, and 95 frames more were made before addition of acetylcholine. The measurement stopped 30 frames after the 2nd addition. Raw data for each well were collected as “the maximum fluorescence count” in the interval 100-131 seconds and as “the average fluorescence count” in the interval 96-100 seconds. The positive allosteric modulation in the 2nd addition was the enhancement of agonist response with test compound compared to agonist alone.
# Results were calculated as % modulation of test compound compared to the reference PNU-120596 set to 100%.
# T1 sequence (P36544 23-502): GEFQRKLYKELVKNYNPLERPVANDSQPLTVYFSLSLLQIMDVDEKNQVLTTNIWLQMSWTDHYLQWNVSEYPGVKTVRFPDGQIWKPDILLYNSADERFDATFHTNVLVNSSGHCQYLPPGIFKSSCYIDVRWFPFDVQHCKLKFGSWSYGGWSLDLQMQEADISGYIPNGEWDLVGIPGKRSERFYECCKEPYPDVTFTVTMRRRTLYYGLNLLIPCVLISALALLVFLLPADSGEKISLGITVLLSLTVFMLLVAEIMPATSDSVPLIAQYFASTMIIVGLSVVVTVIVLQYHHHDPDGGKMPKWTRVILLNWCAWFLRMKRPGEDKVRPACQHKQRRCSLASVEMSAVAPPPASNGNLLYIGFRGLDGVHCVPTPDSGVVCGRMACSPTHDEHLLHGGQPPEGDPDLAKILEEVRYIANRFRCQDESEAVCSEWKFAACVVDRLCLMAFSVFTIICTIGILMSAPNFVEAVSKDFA
row,EC50 [µM],Compound
1,1.5,"COc1ccc([C@H](C)NC(=O)[C@H]2C[C@@H]2c2ccccc2)cc1 [Compound 1, (1S,2S)-2-Phenyl-cyclopropanecarboxylic acid [(S)-1-(4-methoxy-phenyl)ethyl]-amide]"
2,3.6,"O=C(N[C@@H](CO)c1ccc(OC(F)(F)F)cc1)[C@H]1C[C@@H]1c1ccccc1 [Compound 7, (1S,2S)-2-Phenyl-cyclopropanecarboxylic acid [(R)-2-hydroxy-1-(4-trifluoromethoxy-phenyl)-ethyl]-amide]"
3,0.27,"CCOc1ccc([C@H](CO)NC(=O)[C@H]2C[C@@H]2c2ccccc2)cc1 [Compound 8, (1S,2S)-2-Phenyl-cyclopropanecarboxylic acid [(R)-1-(4-ethoxy-phenyl)-2-hydroxy-ethyl]-amide]"
4,0.645,"COc1ccc([C@H](CO)NC(=O)[C@H]2C[C@@H]2c2ccccc2)cc1 [Compound 10, (1S,2S)-2-Phenyl-cyclopropanecarboxylic acid [(R)-2-hydroxy-1-(4-methoxy-phenyl)-ethyl]-amide]"
5,1.2,"COc1ccc([C@H](CO)NC(=O)[C@H]2C[C@@H]2c2ccccc2F)cc1 [Compound 15, (1S,2S)-2-(2-Fluoro-phenyl)-cyclopropanecarboxylic acid [(R)-2-hydroxy-1-(4-methoxy-phenyl)-ethyl]-amide]"
6,0.16,"COC[C@H](NC(=O)[C@H]1C[C@@H]1c1ccccc1)c1ccc(OC)cc1 [Compound 16, (1S,2S)-2-Phenyl-cyclopropanecarboxylic acid [(R)-2-methoxy-1-(4-methoxy-phenyl)-ethyl]-amide]"
7,0.033,"CCOc1ccc([C@H](COC)NC(=O)[C@H]2C[C@@H]2c2ccccc2)cc1 [Compound 17, (1S,2S)-2-Phenyl-cyclopropanecarboxylic acid [(R)-1-(4-ethoxy-phenyl)-2-methoxy-ethyl]-amide]"
8,3.9,"O=C(N[C@@H](CO)c1ccc(O)cc1)[C@H]1C[C@@H]1c1ccccc1 [Compound 18, (1S,2S)-2-Phenyl-cyclopropanecarboxylic acid [(R)-2-hydroxy-1-(4-hydroxy-phenyl)-ethyl]-amide]"
9,3.6,"COC[C@H](NC(=O)[C@H]1C[C@@H]1c1ccccc1)c1ccc(O)cc1 [Compound 19, (1S,2S)-2-Phenyl-cyclopropanecarboxylic acid [(R)-1-(4-hydroxy-phenyl)-2-methoxy-ethyl]-amide]"
10,1.5,"O=C(N[C@@H](CO)c1ccc(OCCF)cc1)[C@H]1C[C@@H]1c1ccccc1 [Compound 24, (1S,2S)-2-Phenyl-cyclopropanecarboxylic acid {(R)-1-[4-(2-fluoro-ethoxy)phenyl]-2-hydroxy-ethyl}-amide]"

# Further lines, the molecule ahead of its results:
row,Compound,EC50 [µM]
1,"O=C(N[C@@H](CCO)c1ccccc1)[C@H]1C[C@@H]1c1ccccc1 [Compound 2, (1S,2S)-2-Phenyl-cyclopropanecarboxylic acid ((S)-3-hydroxy-1-phenyl-propyl)-amide]",4.9
2,"C[C@H](NC(=O)[C@H]1C[C@@H]1c1ccccc1)c1ccc(F)cc1 [Compound 3, (1S,2S)-2-Phenyl-cyclopropanecarboxylic acid [(S)-1-(4-fluoro-phenyl)-ethyl]-amide]",2.4
3,"COc1ccc([C@H](CO)NC(=O)[C@H]2C[C@@H]2c2cccc(F)c2)cc1 [Compound 4, (1S,2S)-2-(3-Fluoro-phenyl)-cyclopropanecarboxylic acid [(R)-2-hydroxy-1-(4-methoxy-phenyl)-ethyl]-amide]",1.2
4,"Cc1ccc([C@H](C)NC(=O)[C@H]2C[C@@H]2c2ccccc2)cc1 [Compound 5, (1S,2S)-2-Phenyl-cyclopropanecarboxylic acid ((S)-1-p-tolyl-ethyl)-amide]",3.8
5,"C[C@H](NC(=O)[C@H]1C[C@@H]1c1ccccc1)c1cccc(F)c1 [Compound 6, (1S,2S)-2-Phenyl-cyclopropanecarboxylic acid [(S)-1-(3-fluoro-phenyl)-ethyl]-amide]",3.1
6,"COc1ccc([C@H](CO)NC(=O)[C@H]2C[C@@H]2c2ccccc2)c(F)c1 [Compound 9, (1S,2S)-2-Phenyl-cyclopropanecarboxylic acid [(R)-1-(2-fluoro-4-methoxy-phenyl)-2-hydroxy-ethyl]-amide]",0.61
7,"COc1cccc([C@H](C)NC(=O)[C@H]2C[C@@H]2c2ccccc2)c1 [Compound 11, (1S,2S)-2-Phenyl-cyclopropanecarboxylic acid [(S)-1-(3-methoxy-phenyl)ethyl]-amide]",3
8,"C[C@H](NC(=O)[C@H]1C[C@@H]1c1ccccc1)c1ccccc1F [Compound 12, (1S,2S)-2-Phenyl-cyclopropanecarboxylic acid [(S)-1-(2-fluoro-phenyl)-ethyl]-amide]",1.9
9,"COc1ccc([C@H](CO)NC(=O)[C@H]2C[C@@H]2c2ccc(F)cc2)cc1 [Compound 13, (1S,2S)-2-(4-Fluoro-phenyl)-cyclopropanecarboxylic acid [(R)-2-hydroxy-1-(4-methoxy-phenyl)-ethyl]-amide]",0.51
10,"COc1ccc([C@H](CO)NC(=O)[C@H]2C[C@@H]2c2cccc(F)c2)cc1 [Compound 14, (1S,2S)-2-(3-Fluoro-phenyl)-cyclopropanecarboxylic acid [(R)-2-hydroxy-1-(4-methoxy-phenyl)-ethyl]-amide]",0.4
11,"COC[C@H](NC(=O)[C@H]1C[C@@H]1c1ccc(F)cc1)c1ccc(OC)cc1 [Compound 20, (1S,2S)-2-(4-Fluoro-phenyl)-cyclopropanecarboxylic acid [(R)-2-methoxy-1-(4-methoxy-phenyl)-ethyl]-amide]",0.084
12,"COC[C@H](NC(=O)[C@H]1C[C@@H]1c1cccc(F)c1)c1ccc(OC)cc1 [Compound 21, (1S,2S)-2-(3-Fluoro-phenyl)-cyclopropanecarboxylic acid [(R)-2-methoxy-1-(4-methoxy-phenyl)-ethyl]-amide]",1.1
13,"O=C(N[C@@H](CO)c1ccc(O)cc1)[C@H]1C[C@@H]1c1ccc(F)cc1 [Compound 22, (1S,2S)-2-(4-Fluoro-phenyl)-cyclopropanecarboxylic acid [(R)-2-hydroxy-1-(4-hydroxy-phenyl)-ethyl]-amide]",3.2
14,"O=C(N[C@@H](CO)c1ccc(O)cc1)[C@H]1C[C@@H]1c1cccc(F)c1 [Compound 23, (1S,2S)-2-(3-Fluoro-phenyl)-cyclopropanecarboxylic acid [(R)-2-hydroxy-1-(4-hydroxy-phenyl)-ethyl]-amide]",3.8
15,"O=C(N[C@@H](CO)c1ccc(OCCF)cc1)[C@H]1C[C@@H]1c1ccc(F)cc1 [Compound 25, (1S,2S)-2-(4-Fluoro-phenyl)-cyclopropanecarboxylic acid {(R)-1-[4-(2-fluoro-ethoxy)-phenyl]-2-hydroxy-ethyl}-amide]",0.14
